# Experimental data as given in ChEMBL document CHEMBL5150047, “Novel bioactive hybrid Celecoxib-HDAC Inhibitor, induces apoptosis in human acute lymphoblastic leukemia cells” (Bioorg Med Chem, 2022).
# Activity calls are given as the source filed them. The calls are words filed in the database; no cut-off is given here.
# Experiments:
# NALM-6 [1] = assay: Antiproliferative activity against human NALM-6 cells assessed as reduction in cell viability incubated for 48 hrs by CCK8 assay; type: functional, cell-based; conditions: NALM-6, 48 h
# Jurkat = assay: Antiproliferative activity against human Jurkat cells assessed as reduction in cell viability incubated for 48 hrs by CCK8 assay; type: functional, cell-based
# HL-60 = assay: Antiproliferative activity against human HL-60 cells assessed as reduction in cell viability incubated for 48 hrs by CCK8 assay; type: functional, cell-based; conditions: HL-60, 48 h
# K562 = assay: Antiproliferative activity against human K562 cells assessed as reduction in cell viability incubated for 48 hrs by CCK8 assay; type: functional, cell-based; conditions: K562, 48 h
# NALM-6 [2] = assay: Potency index, ratio of celecoxib IC50 to test compound IC50 for antiproliferative activity against human NALM-6 cells assessed as reduction in cell viability incubated for 48 hrs by CCK8 assay; type: functional
# NALM-6 [3] = assay: Antiproliferative activity against human NALM-6 cells assessed as reduction in cell viability incubated for 24 hrs by CCK8 assay; type: functional, cell-based
# L02 = assay: Cytotoxicity against human L02 cells assessed as reduction in cell viability by CCK8 assay; type: toxicity, cell-based
# MCF-10A = assay: Cytotoxicity against human MCF-10A cells assessed as reduction in cell viability by CCK8 assay; type: toxicity, cell-based
# Histone deacetylase = assay: Inhibition of HDAC in human NALM-6 nuclear extract incubated for 48 hrs by fluorometric analysis; type: subcellular, Nucleus
# NALM-6 [4] = assay: Downregulation of HDAC2 expression in human NALM-6 cells incubated for 48 hrs by western blot analysis; type: functional, cell-based; conditions: dose 10-30 µM, DDE = dose-dependent effect
# NALM-6 [5] = assay: Induction of cell cycle arrest in human NALM-6 cells assessed as accumulation of cells at G2 phase at 30 uM incubated for 48 hrs by PI/RNase staining based flow cytometry; type: functional
# NALM-6 [6] = assay: Induction of cell cycle arrest in human NALM-6 cells assessed as reduction in proportion of cells at S phase at 30 uM incubated for 48 hrs by PI/RNase staining based flow cytometry; type: functional
# NALM-6 [7] = assay: Induction of apoptosis in human NALM-6 cells assessed as viable cells at 10 uM incubated for 48 hrs by AnnexinV-FITC/PI staining based flow cytometry (reference value: 97.98%); type: functional; conditions: read-out: Activity
# NALM-6 [8] = assay: Induction of apoptosis in human NALM-6 cells assessed as early apoptotic cells at 10 uM incubated for 48 hrs by AnnexinV-FITC/PI staining based flow cytometry (reference value: 1.09%); type: functional
# NALM-6 [9] = assay: Induction of apoptosis in human NALM-6 cells assessed as late apoptotic cells at 10 uM incubated for 48 hrs by AnnexinV-FITC/PI staining based flow cytometry (reference value: 0.92%); type: functional
# NALM-6 [10] = assay: Induction of apoptosis in human NALM-6 cells assessed as necrotic cells at 10 uM incubated for 48 hrs by AnnexinV-FITC/PI staining based flow cytometry (reference value: 0.01%); type: functional
# NALM-6 [11] = assay: Induction of apoptosis in human NALM-6 cells assessed as viable cells at 30 uM incubated for 48 hrs by AnnexinV-FITC/PI staining based flow cytometry (reference value: 97.98%); type: functional; conditions: read-out: Activity
# NALM-6 [12] = assay: Induction of apoptosis in human NALM-6 cells assessed as early apoptotic cells at 30 uM incubated for 48 hrs by AnnexinV-FITC/PI staining based flow cytometry (reference value: 1.09%); type: functional
# NALM-6 [13] = assay: Induction of apoptosis in human NALM-6 cells assessed as late apoptotic cells at 30 uM incubated for 48 hrs by AnnexinV-FITC/PI staining based flow cytometry (reference value: 0.92%); type: functional
# NALM-6 [14] = assay: Induction of apoptosis in human NALM-6 cells assessed as necrotic cells at 30 uM incubated for 48 hrs by AnnexinV-FITC/PI staining based flow cytometry (reference value: 0.01%); type: functional
# NALM-6 [15] = assay: Induction of apoptosis in human NALM-6 cells assessed as increase in cleaved PARP expression at 10 to 30 uM incubated for 48 hrs by western blot analysis; type: functional, cell-based; conditions: dose 10-30 µM
# HUVEC [16] = assay: Cytotoxicity against human HUVEC cells assessed as reduction in cell viability by CCK8 assay; type: toxicity, cell-based
# HUVEC [17] = assay: Cytotoxicity against human HUVEC cells assessed as reduction in cell viability up to 50 uM by CCK8 assay; type: toxicity, cell-based
SMILES,IC50 (NALM-6 [1]) [µM],IC50 (Jurkat) [µM],IC50 (HL-60) [µM],IC50 (K562) [µM],further results
Cc1ccc(-c2cc(C(F)(F)F)nn2-c2ccc(S(=O)(=O)NC(=O)CCCCC[Se]C#N)cc2)cc1,9.95,12.6,26.8,11.7,Ratio IC50 (NALM-6 [2]): 2.8; Activity (NALM-6 [3]): Active; Activity (L02): Non-Toxic; Activity (MCF-10A): Non-Toxic; IC50 (Histone deacetylase): 11.75 µM; inhibition (NALM-6 [4]): Dde; Activity (NALM-6 [5]): Active; Activity (NALM-6 [6]): Active; viability at 10 µM (NALM-6 [7]): 97.7%; Activity (NALM-6 [8]): 1.53%; Activity (NALM-6 [9]): 0.72%; Activity (NALM-6 [10]): 0.09%; viability at 30 µM (NALM-6 [11]): 85.8%; Activity (NALM-6 [12]): 9.51%; Activity (NALM-6 [13]): 4.17%; Activity (NALM-6 [14]): 0.49%; Activity (NALM-6 [15]): Active; Activity (HUVEC [16]): Non-Toxic
Cc1ccc(-c2cc(C(F)(F)F)nn2-c2ccc(S(=O)(=O)NC(=O)C[Se]C#N)cc2)cc1,34.9,33.3,30,44.1,
O=C(CCCCCCC(=O)Nc1ccccc1)NO [VORINOSTAT],,,,,Activity (L02): Toxic; Activity (MCF-10A): Toxic; Activity (HUVEC [16]): Toxic
Cc1ccc(-c2cc(C(F)(F)F)nn2-c2ccc(S(N)(=O)=O)cc2)cc1 [CELECOXIB],28.6,32.1,44.7,57.8,Activity (HUVEC [17]): Non-Toxic
Cc1ccc(-c2cc(C(F)(F)F)nn2-c2ccc(S(=O)(=O)NC(=O)CC[Se]C#N)cc2)cc1,> 100,> 100,62.5,> 100,
Cc1ccc(-c2cc(C(F)(F)F)nn2-c2ccc(S(=O)(=O)NC(=O)CCC[Se]C#N)cc2)cc1,> 100,> 100,> 100,> 100,
Cc1ccc(-c2cc(C(F)(F)F)nn2-c2ccc(S(=O)(=O)NC(=O)CCCC[Se]C#N)cc2)cc1,> 100,> 100,59.8,> 100,
